Earlier results, collected in patent publication US12239727B2, “Compositions for use in the treatment of photosensitivity” (RepoCeuticals A/S, priority 2018, dated 2025).

Details: room temperature, solvent DMSO

In the case of COc1ccc2[nH]cc(CCNC(C)=O)c2c1 [melatonin, N-acetyl-5-methoxytryptamine], the “solubility in DMSO” value is listed as at least 232 mg/mL.
